# Columns and labels:
# [1] = target: T1, human type 2 17β-hydroxysteroid dehydrogenase (Homo sapiens, UniProt P37059); assay: Enzymatic assay for type 2 17β-HSD; assay type: biochemical; conditions: Table 4′; read-out: Inhibition Type 2 17β-HSD Activity IC50
# T1 construct: expressed in transfected cells; host or cells: 293 cells, transient transfection; microsomal fraction (100 000×g pellet)
# T1 sequence (P37059 1-387): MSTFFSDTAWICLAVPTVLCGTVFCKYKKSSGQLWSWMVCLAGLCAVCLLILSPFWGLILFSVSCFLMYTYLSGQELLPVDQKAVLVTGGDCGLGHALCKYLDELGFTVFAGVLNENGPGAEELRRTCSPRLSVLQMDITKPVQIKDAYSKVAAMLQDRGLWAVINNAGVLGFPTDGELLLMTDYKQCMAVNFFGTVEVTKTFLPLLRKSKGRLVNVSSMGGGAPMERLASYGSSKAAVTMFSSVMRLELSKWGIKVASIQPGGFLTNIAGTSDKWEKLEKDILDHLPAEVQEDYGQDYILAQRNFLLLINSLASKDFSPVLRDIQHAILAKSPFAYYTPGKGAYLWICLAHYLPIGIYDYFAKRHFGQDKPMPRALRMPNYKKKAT
# Procedure, shortened: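 Enzymes from transiently transfected 293 cells (cytosol for type 1, microsomes for types 2 and 3 17β-HSD) were incubated 1 h at 37° C in pH 7.4 phosphate/20% glycerol with 2 mM NADPH or NAD+ and 0.1 μM 14C-substrate (estrone, 4-dione, or DHT for 3α-HSD); metabolites quantified by TLC; preliminary % inhibition at 3.10^−6M.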
# ZR-75-1 cells = assay: Estrogenic activity: stimulation of proliferation of ZR-75-1 cells; assay type: cell-based, human; conditions: Table 4′
# Protocol: […] The manner in which the stimulation is determined is described in “Other Tests; C-Estrogenic/Antiestrogenic activity” Lower numbers are desirable. ND means that a determination was not done.
# Estrogenic/antiestrogenic activity of some preferred compounds has been measured using the […] human breast cancer cell line as described in more detail below.
# All media and medium supplments were purchased from Sigma. Cells were subcultured weekly by treatment with a pancreatic solution containing EDTA (0.2 g/L). The cell cultures used for the experiments herein describied were between passages 89 and 94.
# Cells in their logarithmic growth phase were harvested, briefly centrifuged, and resuspended in RPMI 1640. Cells were then plated in triplicate in LIMBRO 24-well plastic culture plates (2 cm^2/well). Since plating density influences the effect of hormones on ZR-75-1 cell growth, cells were plated at a density of 1×10^4 cells/well. […] Control cultures received the ethanol vehicle only. Cells were then allowed to grow at 37° C. for 10 days with medium changes (of identical composition) every 2 days.
# After E2 and/or antiestrogen treatment, cells were harvested by addition of 0.5 ml of a pancreatin solution (Sigma) for 5-10 min at 37° C. before addition of 0.5 mnl of RPMI 1640 containing 5% dextran coated […] bovine serum in order to block enzymatic action. Cell number (0.10 ml aliquot) was determined by measurement of DNA content as previously described (Simard et al., Endocrinology 126: 3223-3231,1990).
# progesterone receptor = assay: Progesterone receptor assay: inhibition of [3H]R5020 binding, uterine cytosol; set-up: species or system rat; conditions: Table 4′
smiles,measurement,setting,value
"COCCOc1cc2c(cc1C(N)=O)C1CC[C@@]3(C)C(CC[C@@]34CCC(C)(C)C(=O)O4)C1CC2 (stereo partly drawn) [EM-1424, 2-Carbamoyl-3-(2″-methoxyethyloxy)-1,3,5(10)-estratrien 17(R)-spiro-2′-(5′,5′-dimethyl-6′-oxo)tetrahydropyran]",IC50,[1],> 10 µM
same,"ZR-75-1 Activity, Basal E^−6",ZR-75-1 cells; E^−6,0%
same,"ZR-75-1 Activity, Basal E^−8",ZR-75-1 cells; E^−8,0%
same,% Inhibition Progesterone Receptor E^−6,progesterone receptor; E^−6,0%
same,% Inhibition Progesterone Receptor E^−8,progesterone receptor; E^−8,1%
